From US10201523B2, “Use of wilforlide A for overcoming chemotherapy resistance” (WESTERN UNIVERSITY OF HEALTH SCIENCES, priority 2013, dated 2019)
“And” between values parts separate entries of the source, which are not always exact repeats. Equal entries are not always repeated.

Legend:
PC3-TxR [1] = experiment: SRB cell viability assay, 72 h wilforlide A dose-response; assay type: cell-based, human; details: for A at 565 nm: background = 0.044
Method: The determination of the wilforlide A IC50. The IC50 for wilforlide A was determined in vitro for the purpose of identifying wilforlide A concentrations that could be used for determining its chemosensitizing effect (CE) in cell cultures of the docetaxel-resistant prostate cancer line PC3-TxR (Obtained from Prof. Evan T. Keller, University of Michigan).
Post-recovery, the plating media was aspirated from the cell cultures, and replaced with 50 μl per well of RPMI containing a designated concentration of wilforlide A. Then, the cells were incubated in the presence of the wilforlide A media for 72 hours. The 50 μl wilforlide A aliquots were prepared by making 1:3 serial dilutions of a wilforlide A stock solution (0.5 mg/ml in DMSO) to with concentrations ranging from 1×10^2 to 1×10^−3 μg/ml.

PC3-TxR [2] = experiment: SRB cell viability assay, docetaxel with/without wilforlide A pretreatment; assay type: cell-based, human; details: PC3-TxR (docetaxel-resistant); 0.6-5.0 μg/ml pretreatment
DU145-TxR = experiment: as above; assay type: cell-based; details: DU145-TxR (docetaxel-resistant); 2.5 μg/ml pretreatment
Excerpt: FIG. 4 summarizes the data of Tables 18 and 19 in a graphical format.

K562/Dox = experiment: SRB cell viability assay, daunorubicin with/without wilforlide A pretreatment; assay type: cell-based; details: K562/Dox (daunorubicin-resistant); 2.5 μg/ml pretreatment
Excerpt: Wilforlide A sensitizes the daunorubicin-resistant myelogenous leukemia line K562/Dox, to daunorubicin. […] FIG. 5 summarizes the data of Tables 20 and 21 in a graphical format.

SkBr3-TxR = experiment: SRB cell viability assay, lapatinib with/without wilforlide A pretreatment; assay type: cell-based; details: SkBr3-TxR (lapatinib-resistant); 2.5 μg/ml pretreatment
Bt474-TxR = experiment: as above; assay type: cell-based; details: BT474-TxR (lapatinib-resistant); 2.5 or 25 μg/ml pretreatment
[3] = Maximum tolerated dose study, single and multiple dose (sdMTD, mdMTD); assay type: in vivo; details: single and multiple (daily, 7 days) dose, CD-1 mice
Method: Maximum tolerated dose (MTD)s of wilforlide A were determined for single MTD (sdMTD) and multiple dose MTD (mdMTD) protocols. […] A seven day-long sdMTD study was performed in which the single dose was administered on day one. A seven day-long mdMTD study was also performed in which wilforlide was administered daily.
(§1) The administration routes used in these studies were intravenous (i.v.), oral gavage (p.o.), and intraperitoneal (i.p.) administration. […] More specifically, working concentrations of wilforlide A were prepared by: (i) dissolving wilforlide A inDMSO at a concentration of 3 mg/ml at 80° C. for use with i.p. administration; (ii) dissolving wilforlide A in Capmul™ at a concentration of 3 mg/ml for use with p.o. administration; and (iii) dissolving wilforlide A inDMSO at a concentration of 1.5 mg/ml at 80° C., and then diluted ten times in 40% HBCD (w/v) for use with i.v. administration. […] Thus, the MTD study was started with these doses.
For each dose regimen tested, 12 CD-1 mice (6 males and 6 females) received appropriate volume of each wilforlide A preparation. The mice were housed with food and water ad libitum. All mice were monitored for the four hour period that immediately followed wilforlide A administration for indications of acute toxicity, as well as monitored at least 3 times daily for one week for indications of delayed toxicity. The mice were also weighed 24 hours post treatment as well as every other day during the week-long study.

[4] = Pharmacokinetics of wilforlide A in mice (plasma, HPLC-MS/MS); assay type: in vivo; details: CD-1 mice; for Cmax: plasma; for T1/2: terminal elimination
Method: as §1
To determine the pharmacokinetics of wilforlide A in mice, wilforlide A was formulated for i.p., p.o., and i.v. administration as describe above, for doses of 6, 30, and 1.2 mg/kg, respectively. Four CD-1 mice were sacrificed prior to wilforlide A administration and at: (i) 5, 10, 15, 20, 30, and 60 min after i.p. administration; (ii) 2, 5, 10, 15, 20, and 30 min after p.o. administration; and (iii) 1, 2, 3, and 4 hours after i.v. administration. At each time point, blood was drawn via heart puncture and plasma was separated by a five min centrifution at 10000 rpm. Plasma wilforlide A concentrations were measured using a validated HPLC-MS/MS method. The peak drug concentration (Cmax) and time to peak drug concentration (Tmax) were read directly from the plasma concentration time course data, while the terminal elimination half-life (T1/2) was calculated to be 0.693/Ke, where Ke was the terminal phase elimination rate. A-C, respectfully.

PC3-TxR cell tumors = experiment: In vivo tumor xenograft study, chemosensitizing effect with docetaxel; design: species or system SCID mice
Excerpt: To perform this study, tumors were caused to form in fifty six severe four to six week-old, severe combined immunodeficient (SCID) male mice (Taconic Farms, Inc. Oxnard, Calif.) that weighed from 15 to 20 g were obtained and housed in cages with HEPA-filtered air (12-hr light/dark cycle) by subcutaneously injecting PC3-TxR cells in the mice. To prepare the cells for injection, the cells were suspended in a 1:1 mixture of Matrigel (BC Biosciences, Franklin Lakes, N.J., U.S.A.) and RPMI 1640 (Mediatech, Manassas, Va., or Life Technologies, Grand Island, N.Y.). Then the cells were subcutaneously implanted into planks of mice via injection. Mice that had consistently shown tumor growth for fourteen days following the injection of cells were used in the tumor studies. More specifically, these studies were initiated when the xenografted tumors reached a tumor size of about 120 mm^3, calculated by the formula for a semiepplipoid, i.e., Volume=Width2×(Length/2).

[5] = Water solubility of wilforlide A; assay type: physicochemical
PC3 = experiment: SRB cell viability assay, docetaxel with/without wilforlide A pretreatment; details: PC3 (docetaxel-sensitive); 0.6, 1.25 or 2.5 μg/ml pretreatment
Method: Following the 72 hour wilforlide A treatment, a sulforhodamine B (SRB) assay was used to quantitate living cells. To perform the assay, the wilforlide A media was aspirated from each well, and replaced with a 10% solution of cold trichloroacetic acid (TCA) (Cat #: T6399, purchased from Sigma-Aldrich), and incubated for one hour at 4° C. After the TCA incubation, the TCA solution was aspirated, and the cells were washed five times with tap water. After removing the last wash, the plates were left with lids off at room temperature until the surfaces were dry, which took one to two hours. Then 50 μl of a 0.4% solution of sul-forhodamine B (SRB) sodium salt (Cat #: S9012, purchased from Sigma-Aldrich) was added to each well and the plates were incubated at room temperature for 20 to 30 minutes. Afterwards, the wells were washed five times with a 1% acetic acid solution in 10 mM TRIS base (Cat #: 161-0719, purchased from Bio-Rad Laboratories, Hercules, Calif.). The plates were subsequently left to dry for several hours or overnight. SRB that remained in the dried wells was solubilized by adding 100 μl of SRB solubilization solution (10 mM TRIS base) to each well, and placing the plates either on a gently-moving shaker or letting the plates remain stationary at room temperature until the SRB dissolves, which takes about five to ten minutes. The amount of SRB in each well, which correlated directly to the number of living cells at fixation, was determined spectrophotometrically at an absorbance of 565 nm by a microplate reader.
In these comparisons, the in vitro IC50 of a tested chemotherapeutic drug (D) in cell culture was compared to the drug's IC50 when drug treatment followed pretreatment of the cells with wilforlide A (Purchased from PI & PI Technology Inc. of Guangzhou, China or the National Institutes for Food and Drug Control in Beijing, China).
Triplicate wells were assigned to each experimental condition tested, and a 24 hour recovery period for the cells following the seeding of the wells was allowed. During the recovery period, the cells were incubated at 37° C. and 5% CO2.
At the end of the two hour pre-treatment period, 50 μl aliquots of the desired chemotherapeutic drug RPMI medium were added according to the amounts provided in Table 2.
After adding the various doses of chemotherapeutic drugs, as described above, the cells were incubated for an additional 72 hours under the same temperature and atmospheric conditions used for the pre-treatment step.
The cells were then incubated for 72 hours at 37° C. and 5% CO2. After the 72 hour incubation, sulforhodamine B (SRB) assays were performed as described in Example 1 to quantitate living cells.

## CC1(C)[C@@H](O)CC[C@]2(C)[C@H]3CC=C4[C@@H]5C[C@@]6(C)C[C@H](OC6=O)[C@]5(C)CC[C@@]4(C)[C@]3(C)CC[C@@H]12 [wilforlide A, 3-epiabruslactone A]
PC3-TxR [1]; wilforlide A 0.001 μg/ml 72 h
  % viable: 100.0%
  mean A: 2.618
  A at 565 nm: 2.599 and 2.624 and 2.607 and 2.635 and 2.593 and 2.646
PC3-TxR [1]; wilforlide A 0.1 μg/ml 72 h
  % viable: 99.6%
  mean A: 2.606
  A at 565 nm: 2.611 and 2.592 and 2.610 and 2.617 and 2.615
PC3-TxR [1]; wilforlide A 0.333 μg/ml 72 h
  % viable: 100.9%
  mean A: 2.642
  A at 565 nm: 2.645 and 2.618 and 2.661 and 2.646 and 2.664 and 2.617
PC3-TxR [1]; wilforlide A 1 μg/ml 72 h
  % viable: 101.5%
  mean A: 2.657
  A at 565 nm: 2.626 and 2.629 and 2.755 and 2.658 and 2.659 and 2.616
PC3-TxR [1]; wilforlide A 3.33 μg/ml 72 h
  % viable: 77.7%
  mean A: 2.033
  A at 565 nm: 2.082 and 1.928 and 2.081 and 1.950 and 2.070 and 2.088
PC3-TxR [1]; wilforlide A 10 μg/ml 72 h
  % viable: 13.4%
  mean A: 0.351
  A at 565 nm: 0.399 and 0.358 and 0.348 and 0.325 and 0.320 and 0.357
PC3-TxR [1]; wilforlide A 33.3 μg/ml 72 h
  % viable: 2.9%
  mean A: 0.076
  A at 565 nm: 0.096 and 0.072 and 0.074 and 0.073 and 0.069
PC3-TxR [1]; wilforlide A 100 μg/ml 72 h
  % viable: 1.0%
  mean A: 0.025
  A at 565 nm: 0.023 and 0.024 and 0.033 and 0.027 and 0.018
PC3-TxR [2]
  chemosensitizing effect to docetaxel: sensitizes
DU145-TxR
  chemosensitizing effect to docetaxel: sensitizes
K562/Dox
  chemosensitizing effect to daunorubicin: sensitizes
SkBr3-TxR
  chemosensitizing effect to lapatinib: sensitizes
Bt474-TxR
  chemosensitizing effect to lapatinib: sensitizes
[3]; 6 mg/kg i.p.
  tolerability in MTD study: well tolerant
[3]; 30 mg/kg p.o.
  tolerability in MTD study: well tolerant
[3]; […] i.v.
  tolerability in MTD study: well tolerant
[4]; i.p. 6 mg/kg
  Cmax: 750 ng/mL
  T1/2: 41.0 min
[4]; p.o. 30 mg/kg
  Cmax: 30 ng/mL
  T1/2: 25.6 min
[4]; i.v. […]
  T1/2: 11.2 min
PC3-TxR cell tumors; Group 3: docetaxel 20 mg/kg i.v. weekly + wilforlide A […] i.v. weekly + 6 mg/kg i.p. daily, vs other groups
  tumor growth: significant retardation of tumor growth
PC3-TxR cell tumors; wilforlide A alone (Groups 6, 7)
  tumor growth: did not significantly inhibit the tumor growth
PC3-TxR cell tumors; wilforlide A with docetaxel 20 mg/kg i.v.
  effect on docetaxel's anti-tumor effect: significantly enhanced docetaxel's anti-tumor effect
[5]
  water solubility: poorly water soluble
PC3
  chemosensitizing effect to docetaxel: does not significantly enhance the sensitivity
